For the assay, the system named is 2-phenyl-1,4-benzoquinone-induced writhing. As to the kind of experiment: 2-phenyl-1,4-benzoquinone-induced writhing test in mice (analgesia). It is filed as in vivo. The note with it: Mus musculus, read-out: Inhibition of Writhing ED50. An excerpt:
Compounds of the present invention are useful as analgesic agents due to their ability to alleviate pain in mammals. […] Exptl. Biol. Med. 95, 729 (1957)]. The analgesic activity of some of the compounds expressed in terms of the ED50 values for inhibition of writhing are given in TABLE I.
Background: In writhing tests, fewer writhes than in controls are read as antinociception.

Read-outs that look alike come from different tables or passages of the source.

One may read the ED50 as the midpoint of the dose-response relation. `CN1CC[C@@]2(C)c3cc(OC(=O)Oc4ccc(Cl)cc4)ccc3N(C)[C@@H]12.O=C(O)/C=C/C(=O)O` (relative stereo) [4-Chlorophenyl (3aS-cis)-1,2,3,3a,8,8a-hexahydro-1,3a,8-trimethylpyrrolo [2,3-b]indol-5-yl carbonate fumarate]: the 50% effective dose (ED50) (sc, subcutaneous) came out at 0.74 mg/kg. Take `CN1CC[C@@]2(C)c3cc(OC(=O)OC(C)(C)C)cc(Br)c3N(C)[C@@H]12` [(3aS-cis)-7-Bromo-1,2,3,3a,8,8a-hexahydro-1,3a,8-trimethylpyrrolo[2,3-b]indol-5-yl t-butyl carbonate sesquifumarate]: the ED50 came to 0.4 mg/kg (oral) and 0.16 mg/kg (sc, subcutaneous). In the case of `CN1CC[C@@]2(C)c3cc(O)ccc3N(C)[C@@H]12` [eseroline salicylate, reference compound], for the setting “sc, subcutaneous”, the ED50 came to 0.52 mg/kg.

(Values after US4971992A, “Carbonate derivatives of eseroline” (priority 1989, dated 1990).)
